{"source": "patent US8012929B2", "about": "“Peptides directed for diagnosis and treatment of amyloid-associated diseases” (Tel Aviv University Future Technology Development L.P., priority 2002, dated 2011)", "key": {"[1]": {"system": "hAPP(751) transgenic mice", "details": "mouse, in vivo, ip", "procedure": "Experimental design—20 (+3 reserves) 4.5 month (±1 week) old male hAPP(751) transgenic mice were divided into 2 treatment groups, a control group—treated with vehicle and an experimental group—treated with D-Trp-Aib. Animals were treated for 120 days with 3 intraperitoneal (i.p.) injections of 1 mg per animal per day 7 of the original 20 animals died during the 4-month experimental period, 4 of them from the control group."}, "[2]": {"assay": "Acute toxicity in mice, single i.v. dose", "details": "both sexes, mouse, in vivo, iv", "procedure": "Acute Toxicity in Mice—Single dose LD50 or maximal tolerated dose (MTD) of D-Trp-Aib was evaluated by i.v. administration in mice (Harlan Biotech Israel). The sequential method applied in a stepwise procedure, using a minimum amount of animals. At a preliminary phase, an initial single target dose of 250 mg/kg was administered to a group of one male and one female. Further higher dose levels of 500, 1,000 and 750 mg/kg were administered in view of presence or absence of lethality incidence and/or severe adverse reactions at each applied level. The time intervals between the test groups dosing sessions were at least 24 hours. Following termination of the preliminary phase and based on its findings, a main phase was conducted where 5 males & 5 females were administered the jointly selected dose of 750 mg/kg, the highest dose level that was suspected to produce no mortality."}, "[3]": {"details": "mouse, in vivo", "protocol": "Animals were treated following a 4 hour fast, with water ad libitum, and fed 2 hours after administration. Thereafter, animals were sacrificed at different time intervals (5 minutes-8 hours; 3 animals in each group, at every time interval were sacrificed by sodium pentobarbital anesthesia followed by exanguination) and blood (plasma), brain, liver, kidney and pancreas were collected and later analyzed. Plasma and brain tissue samples were analyzed by high-performance liquid chromatography with tandem mass spectrometry (LC-MS/MS).\nIn case of brain tissue, only AUC0-4 was calculated. All parameters were calculated using the software PK solutions Version 2.0 for Noncompartmental Pharmacokinetics Data analysis (Summit Research Services, Montrose, Colo.)."}, "[4]": {"details": "inhaled or intranasal, 20 mg/kg"}}, "note": "Like-named read-outs stand apart in the source and are kept apart here. Square brackets hold non-standard residues; d marks the D form. Peptide text beside a SMILES is read from it. Aib = CC(C)(N)C(=O)O"}
{"smiles": "CC(C)(NC(=O)[C@H](N)Cc1c[nH]c2ccccc12)C(=O)O", "note": "[D-Trp-Aib] (H-[dW]-[Aib]-OH)", "values": [{"measurement": "long-term toxicity", "setting": "[1]", "result": "no long-term toxicity"}, {"measurement": "MTD", "setting": "[2]", "result": "> 750", "unit": "mg/kg"}, {"measurement": "MTD", "setting": "[2]; single dose, i.v., read-out: maximal tolerated dose (MTD)", "result": "< 1000", "unit": "mg/kg"}, {"measurement": "detection in brain tissue (transport through the blood-brain barrier)", "setting": "[3]", "result": "detected in all the assayed brain tissue samples"}, {"measurement": "exposure of the brain, intranasal compared to oral administration", "setting": "[3]", "result": "higher exposure of the brain"}, {"measurement": "Cl (area)/kg", "setting": "[3]; [4]", "result": 19.1947, "unit": "mL/min/kg"}, {"measurement": "Vd (area)/kg", "setting": "[3]; [4]", "result": 2.14474, "unit": "L/kg"}, {"measurement": "AUC (0-t) (obs area)", "setting": "[3]; iv, 50 mg/kg", "result": 2173.55}, {"measurement": "AUCextra", "setting": "[3]; iv, 50 mg/kg", "result": 0.11, "unit": "%"}, {"measurement": "earliest detection post-dosing (rapidly absorbed)", "setting": "[3]; po", "result": 15, "unit": "min"}, {"measurement": "AUC (0-t) (obs area)", "setting": "[3]; po, 50 mg/kg", "result": 453.91}, {"measurement": "AUCextra", "setting": "[3]; po, 50 mg/kg", "result": 0.24, "unit": "%"}, {"measurement": "Cl (area)/kg", "setting": "[3]; po, 50 mg/kg", "result": 20.4857, "unit": "mL/min/kg"}, {"measurement": "Vd (area)/kg", "setting": "[3]; po, 50 mg/kg", "result": 1.90581, "unit": "L/kg"}]}
